# Experiments:
# [1] = Sensory evaluation of degradation component-added soymilk I ((E)-2-nonenal 5 ppb); details: average panel score
# Method: (§1) To commercially available soymilk (“Delicious Unadjusted Soymilk” manufactured by Kikkoman Corporation), each degradation component was added to prepare degradation component-added soymilks at the concentrations listed in Table 23. To these degradation component-added soymilks, 1,4-dioxacycloheptadecan-5,17-dione was added at the concentrations listed in Table 23 to confirm the intensity of the off-flavor (masking effect) and the intensity of the masking components (impact on the flavor of the soymilk itself) for each sample.
# (§2) Eight experienced panelists were selected to conduct a sensory evaluation similar to that of Example 1. […]
# [2] = Sensory evaluation of aqueous solution V containing 1-octen-3-ol 10 ppb: off-flavor intensity and masking component intensity; details: 1-octen-3-ol 10 ppb, average score 0-4
# In short: (§3)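 Scores run 0–4 for two attributes: off-flavor intensity, judged against the unmasked spiked solution (4) and degradant-free water (0), and nootkatone's own perceptibility, judged absolutely. A panel of eight experienced tasters evaluated aqueous solutions of the degradation component containing added nootkatone.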
# [3] = Sensory evaluation of aqueous solution II containing (E)-2-octenal 10 ppb: off-flavor intensity and masking component intensity; details: (E)-2-octenal 10 ppb, average score 0-4
# In short: as §3
# [4] = Sensory evaluation of degradation component-added soymilk II (1-octen-3-ol 500 ppb); details: average panel score
# Method: as §1, §2
# [5] = Overall conclusion of the sensory evaluation across aqueous solutions I to VI
# In short: as §3
# [6] = Sensory evaluation of aqueous solution III containing 1-octen-3-one 1 ppb: off-flavor intensity and masking component intensity; details: 1-octen-3-one 1 ppb, average score 0-4
# In short: as §3
# [7] = Overall conclusion of the sensory evaluation across soymilks I and II
# Method: as §1
# Eight experienced panelists were selected to conduct a sensory evaluation similar to that of Example 1.
# The same method as in Example 20 was used to confirm the intensity of the off-flavor (masking effect) derived from unsaturated fatty acids by α-methyl ionone and the intensity of the masking components (impact on the flavor of the soymilk itself).
# The same method as in Example 20 was used to confirm the intensity of the off-flavor (masking effect) derived from unsaturated fatty acids by menthyl 3-hydroxybutyrate and the intensity of the masking components (impact on the flavor of the soymilk itself).
# [8] = Sensory evaluation of aqueous solution I containing (E)-2-nonenal 1 ppb: off-flavor intensity and masking component intensity; details: (E)-2-nonenal 1 ppb, average score 0-4
# In short: as §3
# [9] = Sensory evaluation of aqueous solution VI containing 1,5-octadien-3-ol 10 ppb: off-flavor intensity and masking component intensity; details: aqueous solution VI, 1,5-octadien-3-ol 10 ppb, average score 0-4
# In short: as §3
# [10] = Sensory evaluation of aqueous solution IV containing 1,5-octadien-3-one 100 ppt: off-flavor intensity and masking component intensity; details: aqueous solution IV, 1,5-octadien-3-one 100 ppt, average score 0-4
# In short: as §3
compound,measurement,setting,value
"O=C1CCCCCCCCCCCC(=O)OCCO1 [1,4-Dioxacycloheptadecan-5,17-Dione, 1,4-dioxacycloheptadecan-5,17-dione]",Masking Component Intensity,[1]; 1 ppb added,0.3
same,Off-Flavor Intensity,[1]; 1 ppb added,2.3
same,Masking Component Intensity,[1]; 1 ppm added,2.6
same,Off-Flavor Intensity,[1]; 1 ppm added,0.6
same,Masking Component Intensity,[1]; 10 ppb added,1.0
same,Off-Flavor Intensity,[1]; 10 ppb added,1.8
same,Masking Component Intensity,[1]; 10 ppt added,0.0
same,Off-Flavor Intensity,[1]; 10 ppt added,3.0
same,Masking Component Intensity,[1]; 100 ppb added,1.9
same,Off-Flavor Intensity,[1]; 100 ppb added,1.0
same,Masking Component Intensity,[1]; 100 ppt added,0.0
same,Off-Flavor Intensity,[1]; 100 ppt added,2.9
same,Off-Flavor Intensity,[2]; 0.001 ppt added,3.4 points
same,Off-Flavor Intensity,[2]; 0.01 ppt added,3.1 points
same,Off-Flavor Intensity,[2]; 0.1 ppt added,2.9 points
same,Off-Flavor Intensity,[2]; 1 ppb added,1.9 points
same,Off-Flavor Intensity,[2]; 1 ppt added,2.8 points
same,Off-Flavor Intensity,[2]; 10 ppb added,1.4 points
same,Off-Flavor Intensity,[2]; 10 ppt added,2.5 points
same,Off-Flavor Intensity,[2]; 100 ppb added,0.5 points
same,Off-Flavor Intensity,[2]; 100 ppt added,2.1 points
same,Off-Flavor Intensity,[3]; 0.001 ppt added,3.4 points
same,Off-Flavor Intensity,[3]; 0.01 ppt added,3.4 points
same,Off-Flavor Intensity,[3]; 0.1 ppt added,3.1 points
same,Off-Flavor Intensity,[3]; 1 ppb added,1.8 points
same,Off-Flavor Intensity,[3]; 1 ppt added,2.8 points
same,Off-Flavor Intensity,[3]; 10 ppb added,1.5 points
same,Off-Flavor Intensity,[3]; 10 ppt added,2.4 points
same,Off-Flavor Intensity,[3]; 100 ppb added,0.6 points
same,Off-Flavor Intensity,[3]; 100 ppt added,2.0 points
same,Masking Component Intensity,[4]; 1 ppb added,0.9
same,Off-Flavor Intensity,[4]; 1 ppb added,1.8
same,Masking Component Intensity,[4]; 1 ppm added,2.8
same,Off-Flavor Intensity,[4]; 1 ppm added,0.5
same,Masking Component Intensity,[4]; 10 ppb added,1.3
same,Off-Flavor Intensity,[4]; 10 ppb added,1.3
same,Masking Component Intensity,[4]; 10 ppt added,0.4
same,Off-Flavor Intensity,[4]; 10 ppt added,2.5
same,Masking Component Intensity,[4]; 100 ppb added,2.1
same,Off-Flavor Intensity,[4]; 100 ppb added,1.0
same,Masking Component Intensity,[4]; 100 ppt added,0.5
same,Off-Flavor Intensity,[4]; 100 ppt added,2.0
same,"concentration that masks the off-flavor and does not affect the flavor of the food and/or beverage itself, lower limit",[5],≥ 0.01 ppt
same,"concentration that masks the off-flavor and does not affect the flavor of the food and/or beverage itself, upper limit",[5],≤ 10 ppb
same,Off-Flavor Intensity,[6]; 0.001 ppt added,3.6 points
same,Off-Flavor Intensity,[6]; 0.01 ppt added,3.4 points
same,Off-Flavor Intensity,[6]; 0.1 ppt added,3.0 points
same,Off-Flavor Intensity,[6]; 1 ppb added,1.4 points
same,Off-Flavor Intensity,[6]; 1 ppt added,2.6 points
same,Off-Flavor Intensity,[6]; 10 ppb added,1.0 points
same,Off-Flavor Intensity,[6]; 10 ppt added,2.4 points
same,Off-Flavor Intensity,[6]; 100 ppb added,0.3 points
same,Off-Flavor Intensity,[6]; 100 ppt added,1.8 points
same,"concentration that masks the off-flavor and does not affect the flavor of the soymilk itself, lower limit",[7],≥ 10 ppt
same,"concentration that masks the off-flavor and does not affect the flavor of the soymilk itself, upper limit",[7],≤ 1 ppm
same,Off-Flavor Intensity,[8]; 0.001 ppt added,3.5 points
same,Off-Flavor Intensity,[8]; 0.01 ppt added,3.3 points
same,Off-Flavor Intensity,[8]; 0.1 ppt added,2.9 points
same,Off-Flavor Intensity,[8]; 1 ppb added,1.6 points
same,Off-Flavor Intensity,[8]; 1 ppt added,2.8 points
same,Off-Flavor Intensity,[8]; 10 ppb added,1.0 points
same,Off-Flavor Intensity,[8]; 10 ppt added,2.3 points
same,Off-Flavor Intensity,[8]; 100 ppb added,0.3 points
same,Off-Flavor Intensity,[8]; 100 ppt added,2.0 points
same,Off-Flavor Intensity,[9]; 0.001 ppt added,3.3 points
same,Off-Flavor Intensity,[9]; 0.01 ppt added,3.0 points
same,Off-Flavor Intensity,[9]; 0.1 ppt added,2.9 points
same,Off-Flavor Intensity,[9]; 1 ppb added,1.8 points
same,Off-Flavor Intensity,[9]; 1 ppt added,2.5 points
same,Off-Flavor Intensity,[9]; 10 ppb added,1.4 points
same,Off-Flavor Intensity,[9]; 10 ppt added,2.5 points
same,Off-Flavor Intensity,[9]; 100 ppb added,0.9 points
same,Off-Flavor Intensity,[9]; 100 ppt added,2.1 points
same,Off-Flavor Intensity,[10]; 0.001 ppt added,3.8 points
same,Off-Flavor Intensity,[10]; 0.01 ppt added,3.5 points
same,Off-Flavor Intensity,[10]; 0.1 ppt added,3.4 points
same,Off-Flavor Intensity,[10]; 1 ppb added,2.1 points
same,Off-Flavor Intensity,[10]; 1 ppt added,3.0 points
same,Off-Flavor Intensity,[10]; 10 ppb added,1.6 points
same,Off-Flavor Intensity,[10]; 10 ppt added,2.9 points
same,Off-Flavor Intensity,[10]; 100 ppb added,1.0 points
same,Off-Flavor Intensity,[10]; 100 ppt added,2.8 points
